Six compounds from patent publication EP0790293A1, “Lubricant” (Asahi Kasei Kogyo Kabushiki Kaisha, priority 1991, dated 1992) can be followed below.

Holding throughout (assay type): physicochemical
Data set [1] can be described thus: Miscibility with polypropylene glycol. The following applies: weight ratio 50/50; polypropylene glycol number average molecular weight 1000.
Data set [2] is described as follows: Kinetic viscosity (E-type rotational viscometer, Cannon-Fenske viscometer). The source says: The kinetic viscosity of the lubricant oil for use in the present invention can be determined by measuring the viscosity by means of various viscometers. As the viscometer to be used for determining the kinetic viscosity, there can be mentioned a capillary viscometer, such as a Ubbellohde viscometer, an Ostward viscometer or a Cannon-Fenske viscometer, a rotational viscometer, and a falling ball viscometer. In the present invention, an E-type rotational viscometer (manufactured by Tokyo Keiki, Japan) and a Cannon-Fenske viscometer were used.

Data set [3] is described as follows: Miscibility test with HFC-125. The procedure: (§1) First, 0.2 g of the oil [S1] was charged into a glass tube and then, the whole was cooled by liquid nitrogen. The interior of the glass tube was evacuated and, about 1.5 g of HFC-134a was introduced into the glass tube. The glass tube was sealed and placed in a temperature-controlled water bath. When the temperature was equilibriated, in the manner in which the miscibility of the oil [S1] with the fluoroalkane was visually evaluated, a miscibility limit was measured in the temperature range of from room temperature to 90 °C. A lower miscibility limit at temperatures lower than room temperature was likewise measured by cooling with a methanol cooling medium. The results are shown in Table 3 together with the results of Comparative Example 1.
The miscibility of the oil [S2] obtained in Referential Example 2 with HFC-125 (CF3CHF2) was evaluated in the same manner as in Example 1.

Data set [4] can be described thus: Miscibility test with HFC-134a (sealed glass tube, visual evaluation). The following applies: for Temperature range for being miscible with HFC-134a lower limit temperature (°C) / Temperature range for being miscible with HFC-134a upper limit temperature (°C): 0.2 g oil, about 1.5 g HFC-134a; for Temperature range for being miscible with HFC-134a upper limit temperature (°C): measured up to 90 °C.

Data set [5] in a line: Evaluation of heat resistance (sealed tube test). The following applies: 175 °C for 10 days with HFC-134a and steel, copper, aluminum pieces. The procedure: A glass tube was charged with 0.6 ml of purified oil [S1], HFC-134a and test pieces of steal copper and aluminum, and the glass tube was then sealed to enclose a refrigerant composition therein. The refrigerant composition was heated at 175 °C for 10 days. After the heating, any change of the hue of the refrigerant composition and any change of the surfaces of the metal pieces were examined.
The heat resistances of various compounds of the present invention were evaluated according to the sealed tube test in the same manner as described above. […]

Data set [6] can be described thus: Miscibility test with HFC-227ea. On the procedure: as §1
The miscibility of the oil [S2] obtained in Referential Example 2 with HFC-227ea (CF3CHFCF3) was evaluated in the same manner as in Example 1.

Data set [7] is described as follows: Miscibility with ester oil. The following applies: weight ratio 50/50.
A short description of data set [8]: Volume resistivity, JIS C2101 (insulating oil test). The following applies: 20 °C; for volume resistivity: oil as obtained in the Referential Example. On the procedure:
Volume resistivity of the oil [S1] obtained in Referential Example 1 was measured according to the method of JIS C2101 (insulating oil test).

Data set [9] in a line: Miscibility test with HFC-32. On the procedure: as §1
The miscibility of the oil [S2] obtained in Referential Example 2 with HFC-32 (CH2F2) was evaluated in the same manner as in Example 1.

A short description of data set [10]: Miscibility with mineral oil. The following applies: weight ratio 50/50.
The nature of data set [11]: Insulation breakdown voltage, JIS C2101. The following applies: oil purified with activated carbon. The procedure: 100 g of activated carbon (Calgon® CPG, manufactured by Calgon Far East, Japan) dried in vacuum at 150 °C for 3 hours was dispersed in 400 g of R-113 to obtain a suspension, and 200 g of the oil [S1] obtained in Example 40 was added thereto, followed by agitation at room temperature overnight. The activated carbon was removed by filtration and, then, the R-113 was dis tilled off, followed by simple distillation of the oil, thereby obtaining 140 g of a colorless, transparent oil. The oil obtained according to the present purification method was analyzed by gas chromatography. […] Further, each of the volume resistivities of the oil at 20 °C before and after purification was measured in substantially the same manner as in Example 45. […] The above results are shown in Table 13, together with the results of Comparative Examples 17 through 20.

Data set [12] can be described thus: Miscibility with fluoroalkanes in general. The source says: The present inventors have examined the miscibilities of perfluoropolyethers having the various structures indicated below, inclusive of perfluoropolyethers (trade name: Fomblin Y-06, Y-25 and Y-45, manufactured and sold by Nippon Montedison Co., Ltd., Japan) employed in Examples of Japanese Patent Application Laid-Open Specification Nos. 60-96684 and 1-118598, with a fluoroalkane, such as HFC-134a, HFC-134 and HFC-152a. […] Accordingly, it has been confirmed that such perfluoropolyethers are not suitable as a lubricant for use in refrigeration equipment employing a fluoroalkane, such as HFC-134a, HFC-134 and HFC-152a, as a refrigerant. [drawing 1] wherein each of q1, q2, q3, q4, q5 and q6 is a positive integer.
The miscibilities of commercially available perfluoropolyether and 2,2-bis(4-ethoxyphenyl)propane with each of the above various fluoroalkane were evaluated, in substantially the same manner as in Example 1. The results are shown in Table 3 together with data of the kinetic viscosity at 40 °C.

Where [13] appears, read: mixing ratio [S2]/[S2]+HFC-134a 5 % by weight.
Setting [14] is: mixing ratio [S2]/[S2]+HFC-134a 10 % by weight.
Setting [15] is: mixing ratio [S2]/[S2]+HFC-134a 30 % by weight.
Where [16] appears, read: mixing ratio [S2]/[S2]+HFC-134a 50 % by weight.
[17] abbreviates: mixing ratio [S2]/[S2]+HFC-134a 80 % by weight.

Each structure is given as a SMILES string. Where only a bound is given, the exact number is not on record here.

For `CC(C)(c1ccc(OC(F)(F)C(F)F)cc1)c1ccc(OC(F)(F)C(F)F)cc1` [[S2]], in [1], the “miscibility with polypropylene glycol” value is recorded as “completely miscible”. Also, in [2], the “Kinetic viscosity (cSt)40°C” value was 26.2 cSt and the “kinetic viscosity at 100 °C” value was determined as 3.40 cSt. Moreover, in [3], the “lower limit temperature to be miscible with HFC-125” value is at most -78 °C and the “upper limit temperature to be miscible with HFC-125” value was 90 °C. Besides, in [4] (setting [13]), the “Temperature range to be miscible (°C) lower limit temperature” value was -78 or below °C and the “Temperature range to be miscible (°C) upper limit temperature” value was 90 or above °C. Besides, in [4] (setting [14]), the “Temperature range to be miscible (°C) lower limit temperature” value is -78 or below °C and the “Temperature range to be miscible (°C) upper limit temperature” value is 90 or above °C. Also, in [4] (setting [15]), the “Temperature range to be miscible (°C) lower limit temperature” value was -78 or below °C and the “Temperature range to be miscible (°C) upper limit temperature” value was 90 or above °C. Besides, in data set [4] (setting [16]), the “Temperature range to be miscible (°C) lower limit temperature” value was -78 or below °C and the “Temperature range to be miscible (°C) upper limit temperature” value was 90 or above °C. In data set [4] (setting [17]), the “Temperature range to be miscible (°C) lower limit temperature” value was -78 or below °C and the “Temperature range to be miscible (°C) upper limit temperature” value is 90 or above °C. Also, in [5], the “After sealed tube test IR” value is “not changed”, the “After sealed tube test hue” value is on record as “not changed”, the “After sealed tube test metal surface” value is on record as “not changed” and the “After sealed tube test viscosity” value is “not changed”. In [6], the “lower limit temperature to be miscible with HFC-227ea” value was at most -78 °C and the “upper limit temperature to be miscible with HFC-227ea” value was found to be 90 °C. In addition, the “miscibility with ester oil” value in [7] is on record as “completely miscible”. The volume resistivity in data set [8] is reported as 5.7 x 10^11 Ωcm. In data set [9], the “lower limit temperature to be miscible with HFC-32” value is at most -78 °C and the “upper limit temperature to be miscible with HFC-32” value came out at 90 °C.
For the compound `CC(C)(c1ccc(OC(F)F)cc1)c1ccc(OC(F)F)cc1` [[S7]], the “Kinetic viscosity (cSt)40°C” value in [2] came to 4 cSt. In data set [4], the “Temperature range for being miscible with HFC-134a lower limit temperature (°C)” value was -78 or below °C and the “Temperature range for being miscible with HFC-134a upper limit temperature (°C)” value was 90 or above °C.
As to `CC(C)(c1ccc(OC(F)(F)CF)cc1)c1ccc(OC(F)(F)CF)cc1` [[S9]], in data set [2], the “Kinetic viscosity (cSt)40°C” value is recorded as 50 cSt. For the same compound, in data set [4], the “Temperature range for being miscible with HFC-134a lower limit temperature (°C)” value was -78 or below °C and the “Temperature range for being miscible with HFC-134a upper limit temperature (°C)” value was 90 or above °C.
Consider `CC(C)(c1ccc(OC(F)(F)C(F)Cl)cc1)c1ccc(OC(F)(F)C(F)Cl)cc1` (centres unmarked) [[S1]], for which the “miscibility with mineral oil” value in data set [10] is reported as “completely miscible”. Moreover, in [2], the “Kinetic viscosity (cSt)40°C” value turned out to be 56.8 cSt and the “kinetic viscosity at 100 °C” value worked out at 5.34 cSt. Moreover, in data set [5], the “After sealed tube test IR” value was “not changed at all”, the “After sealed tube test hue” value is reported as “not changed”, the “After sealed tube test metal surface” value is recorded as “not changed” and the “After sealed tube test viscosity” value is on record as “not changed at all”. In addition, in data set [11], the insulation breakdown voltage was at least 50 kV/2.5 cm. For the same compound, the volume resistivity in data set [8] is given as 3.0 x 10^11 Ωcm. Further, the “Volume resistivity (Ωcm) before purification” value in [8] (oil of Example 40 ([S1]) or Example 44 ([S2]) before adsorbent treatment) was 1.0 x 10^11 Ωcm. For the same compound, the “volume resistivity after purification” value in data set [8] (purified with activated carbon (Calgon® CPG)) was 2.2 x 10^13 Ωcm. Further, in [9], the “lower limit temperature to be miscible with HFC-32” value was -56 °C and the “upper limit temperature to be miscible with HFC-32” value is at least 90 °C.
Consider `CCOc1ccc(C(C)(C)c2ccc(OCC)cc2)cc1` [[S14], 2,2-bis(4-ethoxyphenyl)propane], for which, in data set [12], the “miscibility with fluoroalkanes, such as HFC-134a” value is reported as “little miscibility”.
As for `Cc1cc(C(C)(C)c2ccc(OC(F)(F)C(F)F)c(C)c2)ccc1OC(F)(F)C(F)F` [[S5]], in data set [2], the “Kinetic viscosity (cSt)40°C” value was found to be 115 cSt. Moreover, in data set [4], the “Temperature range for being miscible with HFC-134a lower limit temperature (°C)” value was -78 or below °C and the “Temperature range for being miscible with HFC-134a upper limit temperature (°C)” value is 90 or above °C. Also, in data set [5], the “After sealed tube test IR” value is listed as “not changed”, the “After sealed tube test hue” value is recorded as “not changed”, the “After sealed tube test metal surface” value is “not changed” and the “After sealed tube test viscosity” value is “not changed”. For the same compound, in data set [8], the volume resistivity was 2.9 x 10^12 Ωcm.
